For one experiment, the target named is JAK1 (Homo sapiens (Human), UniProt P23458). Put plainly: JAK1 enzyme activity assay (Thermo Fisher SelectScreen, Z-lyte). It is filed as biochemical. Conditions: read-out: JAK1 Inhibition IC50. The method in brief: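 Z-lyte assay with 21.2-91.5 ng JAK and […] Tyr 06 in 50 mM HEPES pH 7.0, 10 mM MgCl2, 1 mM EGTA, 0.01% BRIJ-35; 1 h kinase reaction, then development reagent. 11-point dose-response from […] to 0.34 nM, 2% DMSO vehicle; IC50 from 4-parameter logistic fit of emission ratio.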

For another experiment, the target named is JAK2 (Homo sapiens (Human), UniProt O60674). Put plainly: JAK2 enzyme activity assay (Thermo Fisher SelectScreen, Z-lyte). The format is biochemical. Conditions: read-out: JAK2 Inhibition IC50. Put shortly: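 IC50 values derive from a 4-parameter logistic fit of emission ratio across an 11-point series ([…] to 0.34 nM, 2% DMSO vehicle). Reaction: 1 h, 0.12-0.5 ng JAK2, […] Tyr 06 in HEPES pH 7.5 buffer with MgCl2, EGTA, BRIJ-35, read by Z-lyte development.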

A further experiment concerns the target JAK3 (a.a. 781-1124) (Homo sapiens (Human), UniProt P52333). Put plainly: JAK3 enzyme activity assay (SRCtide phosphorylation, Caliper). Conditions: 1 uM ATP; read-out: JAK3 Inhibition IC50. The format is biochemical.
The target of another experiment is Tyk-2 (Homo sapiens (Human), UniProt P29597). Put plainly: Tyk-2 enzyme activity assay (Thermo Fisher SelectScreen, Z-lyte). The format is biochemical. The conditions noted are these: read-out: Tyk-2 Inhibition IC50. Put shortly: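 Z-lyte FRET assay: 3.75–15 ng TYK2 with […] Tyr 03 peptide in HEPES pH 7.0, MgCl2, EGTA, BRIJ-35; 1 h reaction, then development reagent. 11-point dose-response, 2% DMSO; IC50 via 4-parameter fit of emission ratio, background without enzyme.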

Experiment [1] concerns IL-2 stimulated STAT5 phosphorylation on Tyr694 (JAK1/3). Put plainly: JAK1/3 cellular target modulation: IL-2 stimulated phospho-STAT5 in PBMC. The format is cell-based. The conditions noted are these: human PBMC, IL-2 25 ng/ml; read-out: IL2-STAT5 IC50. Put shortly: (§1)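 Thawed human PBMC (200,000/well, RPMI/10% FBS) were preincubated with compound for 1 h at 37 °C, added from 10× stocks in 1% DMSO. Stimulation and read-out: IL-2 25 ng/ml, 5 min, pSTAT5 by MSD; IL-12 1.7 ng/ml, 25 min, pSTAT4 by MSD; IFNγ 10 ng/ml, 10 min, pSTAT1 by sandwich ELISA.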

The subject of experiment [2] is IFNγ stimulated STAT1 phosphorylation on Tyr701 (JAK1/2). The experiment can be described thus: JAK1/2 cellular target modulation: IFNγ stimulated phospho-STAT1 in PBMC. It is filed as cell-based. Conditions: human PBMC, IFNγ 10 ng/ml; read-out: Infγ-STAT1 IC50. The method in brief:
as §1

Experiment [3] deals with IL-12 stimulated STAT4 phosphorylation on Tyr693 (JAK2/TYK2). The experiment can be described thus: JAK2/TYK2 cellular target modulation: IL-12 stimulated phospho-STAT4 in PBMC. It is filed as cell-based. Conditions: human PBMC, IL-12 1.7 ng/ml; read-out: IL12-STAT4 IC50. From the text: JAK Cellular Target Modulation Assays
Target modulation was based upon the ability of a compound to inhibit JAK isoform specific phosphorylation of selected substrates. IL-2 stimulated STAT5 phosphorylation on Tyr694 was used to assess JAK1/3 compound selectivity. GM-CSF stimulated STAT5 phosphorylation on Tyr694 was used to assess JAK2 compound selectivity. IFNγ stimulated STAT1 phosphorylation on Tyr701 was used to assess JAK1/2 compound selectivity. IL-12 stimulated STAT4 phosphorylation on Tyr693 was used to assess JAK2/TYK2 compound selectivity. For all four assays, human PBMC from frozen stocks were thawed, pelleted, resuspended in complete media (90% RPMI, 10% heat inactivated FBS, 10 mM HEPES, 47 μM 2-ME, pen/strep) and placed in wells of a 96 well V-bottom plate at 200,000 per well in 120 μl complete media. Compounds were added as 15 μl per well of 10× working stock solutions in complete media with 1% DMSO (or medium with 1% DMSO for controls) and placed on a plate shaker in a 37° C. incubator with 5% CO2 for 1 hour with gentle shaking (setting of 3). Stimulation used the addition of soluble cytokines. For the JAK1/3 phospho-STAT5 assay, 15 μl of 10× working stock recombinant human IL-2 was added to a final concentration of 25 ng/ml. For the JAK2 phospho-STAT5 assay, 15 μl of 10× working stock recombinant human GM-CSF was added to a final concentration of 5 ng/ml. For the JAK1/2 phospho-STAT1 assay, 15 μl of 10× working stock of recombinant human IFNγ was added to a final concentration of 10 ng/ml. For the JAK2/TYK2 phospho-STAT4 assay, 15 μl of 10× working stock of recombinant human IL-12 was added to a final concentration of 1.7 ng/ml. Plates were then placed back on the plate shaker in the incubator for an additional 5, 5, 10, and 25 minutes respectively upon which the plates were removed from the incubator, sealed with a plate sealer and the cells pelleted at 400×g for 5 minutes. After pelleting, the media was removed by aspiration and the cells were lysed in assay specific cell lysis buffer. The levels of phospho-STATS were determined using a Phospho (Tyr694) STAT5a,b Whole Cell Lysate kit from Meso Scale Discovery. Levels of phospho-STAT1 were determined using a CST-PathScan Phospho-STAT1 (Tyr701) Sandwich ELISA kit. Levels of phospho-STAT4 were determined using a Phospho-STAT4 (Tyr693) Whole Cell Lysate kit from Meso Scale Discovery.

Structures are written as SMILES. Where only a bound is given, the exact number is not on record here.

Usually IC50 stands for the concentration at which inhibition is half-maximal.

JAK2, sequence (O60674 whole entry): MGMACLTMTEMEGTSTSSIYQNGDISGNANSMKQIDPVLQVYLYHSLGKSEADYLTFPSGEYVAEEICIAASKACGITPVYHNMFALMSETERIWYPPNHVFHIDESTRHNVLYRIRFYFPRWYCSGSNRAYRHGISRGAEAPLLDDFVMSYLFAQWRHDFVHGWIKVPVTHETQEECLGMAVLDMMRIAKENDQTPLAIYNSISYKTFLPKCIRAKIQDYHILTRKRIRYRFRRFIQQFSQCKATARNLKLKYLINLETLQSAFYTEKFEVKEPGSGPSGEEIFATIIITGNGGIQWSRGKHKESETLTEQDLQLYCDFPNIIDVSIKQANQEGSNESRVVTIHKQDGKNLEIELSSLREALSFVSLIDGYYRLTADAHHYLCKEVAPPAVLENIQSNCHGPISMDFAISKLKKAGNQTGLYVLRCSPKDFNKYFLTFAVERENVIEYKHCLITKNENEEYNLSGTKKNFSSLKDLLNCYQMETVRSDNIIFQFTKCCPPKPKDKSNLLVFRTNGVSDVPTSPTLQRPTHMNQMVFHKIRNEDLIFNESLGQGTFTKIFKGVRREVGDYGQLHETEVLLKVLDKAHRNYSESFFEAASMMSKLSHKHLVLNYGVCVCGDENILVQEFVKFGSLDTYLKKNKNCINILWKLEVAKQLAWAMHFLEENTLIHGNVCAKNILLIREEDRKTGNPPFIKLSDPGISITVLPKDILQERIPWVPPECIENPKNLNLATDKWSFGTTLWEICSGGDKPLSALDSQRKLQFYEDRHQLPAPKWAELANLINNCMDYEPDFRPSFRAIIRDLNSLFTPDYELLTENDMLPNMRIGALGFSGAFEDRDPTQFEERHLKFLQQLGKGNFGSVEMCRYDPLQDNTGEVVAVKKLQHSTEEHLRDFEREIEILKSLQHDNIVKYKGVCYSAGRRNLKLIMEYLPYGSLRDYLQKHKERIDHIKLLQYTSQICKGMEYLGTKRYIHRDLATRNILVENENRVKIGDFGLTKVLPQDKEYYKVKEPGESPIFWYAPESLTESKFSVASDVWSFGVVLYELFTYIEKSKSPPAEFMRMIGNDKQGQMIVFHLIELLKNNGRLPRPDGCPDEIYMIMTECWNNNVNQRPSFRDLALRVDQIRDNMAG
JAK1, sequence (P23458 whole entry): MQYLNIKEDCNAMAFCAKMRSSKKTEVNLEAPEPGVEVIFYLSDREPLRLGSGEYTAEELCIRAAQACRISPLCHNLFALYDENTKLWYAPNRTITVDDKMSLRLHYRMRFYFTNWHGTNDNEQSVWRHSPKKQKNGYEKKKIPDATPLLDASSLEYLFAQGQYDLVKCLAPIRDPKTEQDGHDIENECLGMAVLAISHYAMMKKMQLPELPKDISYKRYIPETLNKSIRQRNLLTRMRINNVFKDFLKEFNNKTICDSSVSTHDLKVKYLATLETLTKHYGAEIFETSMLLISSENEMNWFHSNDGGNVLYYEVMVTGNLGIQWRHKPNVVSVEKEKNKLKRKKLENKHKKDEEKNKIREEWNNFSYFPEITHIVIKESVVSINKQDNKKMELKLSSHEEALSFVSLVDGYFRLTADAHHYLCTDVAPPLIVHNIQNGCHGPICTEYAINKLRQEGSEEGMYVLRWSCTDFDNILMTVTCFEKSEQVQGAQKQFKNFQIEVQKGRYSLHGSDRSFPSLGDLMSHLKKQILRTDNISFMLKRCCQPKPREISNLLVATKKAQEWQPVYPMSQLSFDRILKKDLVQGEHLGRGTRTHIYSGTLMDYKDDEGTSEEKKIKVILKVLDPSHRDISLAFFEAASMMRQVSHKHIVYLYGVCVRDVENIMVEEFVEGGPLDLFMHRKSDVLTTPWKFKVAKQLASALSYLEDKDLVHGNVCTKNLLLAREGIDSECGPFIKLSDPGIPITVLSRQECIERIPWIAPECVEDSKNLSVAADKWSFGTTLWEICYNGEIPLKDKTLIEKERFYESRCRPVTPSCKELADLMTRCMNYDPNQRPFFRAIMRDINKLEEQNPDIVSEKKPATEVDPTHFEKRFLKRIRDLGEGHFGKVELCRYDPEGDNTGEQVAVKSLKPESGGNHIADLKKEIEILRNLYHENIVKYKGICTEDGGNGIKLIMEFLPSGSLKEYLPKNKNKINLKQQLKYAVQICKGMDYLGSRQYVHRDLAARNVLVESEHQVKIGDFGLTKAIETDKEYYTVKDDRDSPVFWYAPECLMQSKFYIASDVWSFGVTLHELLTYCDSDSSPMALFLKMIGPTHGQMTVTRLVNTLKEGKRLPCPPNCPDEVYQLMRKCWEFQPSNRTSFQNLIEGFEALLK
JAK3 (a.a. 781-1124), sequence (P52333 781-1124): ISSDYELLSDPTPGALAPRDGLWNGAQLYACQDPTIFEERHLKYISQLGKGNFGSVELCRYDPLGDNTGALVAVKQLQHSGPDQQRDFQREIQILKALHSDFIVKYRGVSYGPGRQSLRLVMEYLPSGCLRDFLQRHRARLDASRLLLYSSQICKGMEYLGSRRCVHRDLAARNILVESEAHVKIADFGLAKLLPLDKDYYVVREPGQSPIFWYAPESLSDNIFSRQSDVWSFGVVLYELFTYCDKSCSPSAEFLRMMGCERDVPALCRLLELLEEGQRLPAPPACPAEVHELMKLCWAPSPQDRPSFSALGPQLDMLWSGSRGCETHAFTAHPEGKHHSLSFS
Tyk-2, sequence (P29597 whole entry): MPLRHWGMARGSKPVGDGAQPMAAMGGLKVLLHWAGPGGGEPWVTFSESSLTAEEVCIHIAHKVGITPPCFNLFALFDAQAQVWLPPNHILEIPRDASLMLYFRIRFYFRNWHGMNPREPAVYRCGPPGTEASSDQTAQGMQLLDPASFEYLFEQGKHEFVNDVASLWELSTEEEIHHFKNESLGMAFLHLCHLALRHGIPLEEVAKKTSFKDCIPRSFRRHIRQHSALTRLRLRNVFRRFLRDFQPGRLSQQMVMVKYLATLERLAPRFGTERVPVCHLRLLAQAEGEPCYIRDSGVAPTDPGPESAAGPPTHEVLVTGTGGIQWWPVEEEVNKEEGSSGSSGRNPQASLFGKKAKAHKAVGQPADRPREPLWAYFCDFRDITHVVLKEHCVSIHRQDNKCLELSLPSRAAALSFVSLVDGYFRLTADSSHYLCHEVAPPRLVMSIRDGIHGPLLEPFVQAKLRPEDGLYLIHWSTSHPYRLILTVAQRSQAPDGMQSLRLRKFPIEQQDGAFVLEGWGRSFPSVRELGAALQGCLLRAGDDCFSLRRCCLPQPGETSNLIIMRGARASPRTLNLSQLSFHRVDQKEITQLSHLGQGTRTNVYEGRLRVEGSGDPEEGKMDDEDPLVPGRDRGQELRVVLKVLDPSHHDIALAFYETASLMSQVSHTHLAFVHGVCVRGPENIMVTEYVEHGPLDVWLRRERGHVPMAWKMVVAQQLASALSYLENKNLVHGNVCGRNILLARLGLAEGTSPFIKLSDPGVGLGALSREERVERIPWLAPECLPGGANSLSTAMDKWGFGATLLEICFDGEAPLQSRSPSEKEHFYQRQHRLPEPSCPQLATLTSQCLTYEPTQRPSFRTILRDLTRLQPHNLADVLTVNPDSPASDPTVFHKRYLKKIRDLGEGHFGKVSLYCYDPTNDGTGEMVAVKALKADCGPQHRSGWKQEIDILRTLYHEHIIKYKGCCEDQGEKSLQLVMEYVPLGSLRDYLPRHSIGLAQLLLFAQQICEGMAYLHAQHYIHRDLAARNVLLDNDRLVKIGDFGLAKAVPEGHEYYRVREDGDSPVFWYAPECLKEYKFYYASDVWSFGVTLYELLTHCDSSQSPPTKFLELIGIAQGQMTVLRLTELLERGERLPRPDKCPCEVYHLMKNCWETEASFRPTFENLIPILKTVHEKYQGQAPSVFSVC

In the case of `CN(C)C(=O)c1coc(-c2cnc3[nH]ccc3c2N[C@@H]2CCCN(C(=O)CC#N)C2)n1` [Example 34, (R)-2-(4-((1-(2-cyanoacetyl)piperidin-3-yl)amino)-1H-pyrrolo[2,3-b]pyridin-5-yl)-N,N-dimethyl-oxazole-4-carboxamide], the IC50 is ≤ 10 nM on JAK1; 10 to 100 nM at JAK2; ≤ 10 nM at JAK3 (a.a. 781-1124); 10 to 100 nM at Tyk-2; 100 to 1000 nM in experiment [1]; 100 to 1000 nM in experiment [2]. The IC50 in experiment [3] was > 1000 nM.
In the case of `Cc1nc(-c2cnc3[nH]ccc3c2N[C@@H]2CCCN(C(=O)CC#N)C2)no1` [Example 19, (R)-3-(3-((5-(5-methyl-1,2,4-oxadiazol-3-yl)-1H-pyrrolo[2,3-b]pyridin-4-yl)amino)piperidin-1-yl)-3-oxopropanenitrile], the IC50 at JAK1 is 10 to 100 nM; on JAK2, 100 to 1000 nM; on JAK3 (a.a. 781-1124) it was 10 to 100 nM; on Tyk-2, 100 to 1000 nM; in experiment [1], 100 to 1000 nM; in experiment [2] it was > 1000 nM. The IC50 in experiment [3] is > 1000 nM.
Turning to `Cc1ccc(-c2cnc3[nH]ccc3c2N[C@@H]2CCCN(C(=O)CC#N)C2)nc1` [Example 22, (R)-3-(3-((5-(5-methylpyridin-2-yl)-1H-pyrrolo[2,3-b]pyridin-4-yl)amino)piperidin-1-yl)-3-oxopropanenitrile], the IC50 was in the range of 10 to 100 nM on JAK1; 10 to 100 nM at JAK2; 10 to 100 nM on JAK3 (a.a. 781-1124); 10 to 100 nM on Tyk-2; 100 to 1000 nM in experiment [1]; 100 to 1000 nM in experiment [2]. For the same molecule, the 50% inhibitory concentration (IC50) in experiment [3] is > 1000 nM.
With `C[C@H]1C[C@@H](Nc2c(-c3nncs3)cnc3[nH]ccc23)CN(C(=O)CC#N)C1` [Example 68, 3-((3R,5S)-3-((5-(1,3,4-thiadiazol-2-yl)-1H-pyrrolo[2,3-b]pyridin-4-yl)amino)-5-methylpiperidin-1-yl)-3-oxopropanenitrile], the IC50 at JAK1 is ≤ 10 nM; at JAK2, ≤ 10 nM; on JAK3 (a.a. 781-1124), ≤ 10 nM; at Tyk-2, ≤ 10 nM; in experiment [1] it was ≤ 100 nM; in experiment [2] it was ≤ 100 nM. In addition, the IC50 in experiment [3] was ≤ 100 nM.
In the case of `N#CCC(=O)N1CCC[C@@H](Nc2c(-c3cccc(N)n3)cnc3[nH]ccc23)C1` [Example 44, (R)-3-(3-((5-(6-aminopyridin-2-yl)-1H-pyrrolo[2,3-b]pyridin-4-yl)amino)piperidin-1-yl)-3-oxopropanenitrile], the IC50 was ≤ 10 nM at JAK1; 10 to 100 nM on JAK2; 10 to 100 nM at JAK3 (a.a. 781-1124); 10 to 100 nM at Tyk-2; 100 to 1000 nM in experiment [1]; 100 to 1000 nM in experiment [2]. In experiment [3], the IC50 is > 1000 nM.
For the molecule `CS(=O)(=O)c1cnc(-c2cnc3[nH]ccc3c2N[C@@H]2CCCN(C(=O)CC#N)C2)o1` [Example 48, (R)-3-(3-((5-(5-(methylsulfonyl)oxazol-2-yl)-1H-pyrrolo[2,3-b]pyridin-4-yl)amino)piperidin-1-yl)-3-oxopropanenitrile], the IC50 on JAK1 was ≤ 10 nM; at JAK2, 10 to 100 nM; at JAK3 (a.a. 781-1124), 10 to 100 nM; on Tyk-2, 10 to 100 nM; in experiment [1], ≤ 100 nM; in experiment [2], 100 to 1000 nM. Moreover, the IC50 in experiment [3] was > 1000 nM.
For `Cc1cccc(-c2cnc3[nH]ccc3c2N[C@@H]2CCCN(C(=O)CC#N)C2)n1` [Example 20, (R)-3-(3-((5-(6-methylpyridin-2-yl)-1H-pyrrolo[2,3-b]pyridin-4-yl)amino)piperidin-1-yl)-3-oxopropanenitrile], the IC50 on JAK1 was ≤ 10 nM; on JAK2 it was 10 to 100 nM; at JAK3 (a.a. 781-1124), 10 to 100 nM; at Tyk-2, 100 to 1000 nM; in experiment [1] it was ≤ 100 nM; in experiment [2], 100 to 1000 nM. In addition, in experiment [3], the IC50 is > 1000 nM.
Turning to `N#CCC(=O)N1CCC[C@@H](Nc2c(-c3nnco3)cnc3[nH]ccc23)C1` [Example 7, (R)-3-(3-((5-(1,3,4-oxadiazol-2-yl)-1H-pyrrolo[2,3-b]pyridin-4-yl)amino)piperidin-1-yl)-3-oxopropanenitrile], the IC50 lay in the range of 10 to 100 nM at JAK1; 10 to 100 nM at JAK2; 10 to 100 nM on JAK3 (a.a. 781-1124); 10 to 100 nM on Tyk-2; 100 to 1000 nM in experiment [1]; 100 to 1000 nM in experiment [2]. Further, in experiment [3], the IC50 was > 1000 nM.
Take `Cc1cnc(-c2cnc3[nH]ccc3c2N[C@@H]2CCCN(C(=O)CC#N)C2)o1` [Example 36, (R)-3-(3-((5-(5-methyloxazol-2-yl)-1H-pyrrolo[2,3-b]pyridin-4-yl)amino)piperidin-1-yl)-3-oxopropanenitrile]: the 50% inhibitory concentration (IC50) was ≤ 10 nM at JAK1; ≤ 10 nM on JAK2; ≤ 10 nM on JAK3 (a.a. 781-1124); ≤ 10 nM on Tyk-2; ≤ 100 nM in experiment [1]; ≤ 100 nM in experiment [2]. Moreover, in experiment [3], the half-maximal inhibitory concentration (IC50) was 100 to 1000 nM.
On to `N#CCCN1CCC[C@@H](Nc2c(-c3ncco3)cnc3[nH]ccc23)C1` [Example 27, (R)-3-(3-((5-(oxazol-2-yl)-1H-pyrrolo[2,3-b]pyridin-4-yl)amino)piperidin-1-yl)propanenitrile], for which the IC50 on JAK1 was 10 to 100 nM; at JAK2, 10 to 100 nM; on JAK3 (a.a. 781-1124), ≤ 10 nM; at Tyk-2 it was 100 to 1000 nM; in experiment [1] it was 100 to 1000 nM; in experiment [2], > 1000 nM. For the same molecule, the IC50 in experiment [3] was > 1000 nM.
For the molecule `C[C@H]1C[C@@H](Nc2c(-c3ncc(S(C)(=O)=O)s3)cnc3[nH]ccc23)CN(C(=O)CC#N)C1` [Example 65, 3-((3S,5R)-3-methyl-5-((5-(5-(methylsulfonyl)thiazol-2-yl)-1H-pyrrolo[2,3-b]pyridin-4-yl)amino)piperidin-1-yl)-3-oxopropanenitrile], the IC50 at JAK1 is ≤ 10 nM; at JAK2, ≤ 10 nM; at JAK3 (a.a. 781-1124) it was ≤ 10 nM; at Tyk-2, ≤ 10 nM; in experiment [1], ≤ 100 nM; in experiment [2], ≤ 100 nM. Also, in experiment [3], the IC50 was ≤ 100 nM.
For `CNC(=O)c1coc(-c2cnc3[nH]ccc3c2N[C@@H]2CCCN(C(=O)CC#N)C2)n1` [Example 33, (R)-2-(4-((1-(2-cyanoacetyl)piperidin-3-yl)amino)-1H-pyrrolo[2,3-b]pyridin-5-yl)-N-methyloxazole-4-carboxamide], the IC50 at JAK1 is ≤ 10 nM; at JAK2 it was 10 to 100 nM; at JAK3 (a.a. 781-1124), ≤ 10 nM; at Tyk-2, 10 to 100 nM; in experiment [1], ≤ 100 nM; in experiment [2] it was 100 to 1000 nM. In experiment [3], the IC50 is > 1000 nM.

The values above are taken from patent US11420966B2 (ACLARIS THERAPEUTICS, INC., priority 2019, dated 2022).
